In patent US9132131B2, “Use of adenosine A3 receptor agonists for treatment of neuropathic pain” (Saint Louis University, priority 2011, dated 2015):
Several values for one entry are separate records, joined by “and”; a condition that tells them apart may be missing. Equal entries are not always repeated.

Tests used:
[1] = test system: CCI of the sciatic nerve (mechano-allodynia); experiment: CCI model of neuropathic pain, mechano-allodynia (von Frey PWT); type: in vivo, mice; conditions: for reversal of mechano-allodynia in ipsilateral paws: single dose D7, IB-MECA 0.2-2, CI-IB-MECA 0.6, MRS1898 0.5 μmol/kg i.p., morphine 0.11-35 s.c., gabapentin 18-584 i.p., amitriptyline 3-191 μmol/kg oral
Method: CCI model of neuropathic pain. CCI to the sciatic nerve of the left hind leg in mice was performed under general anaesthesia using the well-characterized Bennett model. Briefly, mice (weighing 25-30 g at the time of surgery) were anesthetized with 3% isoflurane/100% O2 inhalation and maintained on 2% isoflurane/100% O2 for the duration of surgery. The left thigh was shaved, scrubbed with Nolvasan® and a small incision (1-1.5 cm in length) was made in the middle of the lateral aspect of the left thigh to expose the sciatic nerve. The nerve was loosely ligated around the entire diameter of the nerve at three distinct sites (spaced 1 mm apart) using silk sutures (6.0). The surgical site was closed with a single muscle suture and a skin clip. Pilot studies established that under our experimental conditions peak mechano-allodynia develops by day 5-day 7 (D5-D7) following CCI. Test substances or their vehicles were given subcutaneously (s.c.), intraperitoneally (i.p.) or orally by gavage (0.1 ml) at peak mechano-allodynia (D7).
Behavioral testing. […] The plantar aspect of hindpaws were probed three times with calibrated von Frey filaments (Stoelting, mice: 0.07-2.00 grams; rats: 0.407-26 grams) according to the “up-and-down” method. […] Briefly, each rat was placed in a Plexiglas chamber (28×40×35-cm, wire mesh floor) and after its acclimation, a servo-controlled mechanical stimulus was applied to the plantar surface that exerted a progressively increasing punctate pressure up to 50 grams within 10 seconds. Mechanical threshold was assessed three times at each time point to yield a mean value, reported as PWT (grams). […] Mechano-hyperalgesia was assessed in rats by the Randall and Sellitto paw pressure test using an analgesiometer (Ugo Basile). The nociceptive threshold was defined as the force (grams) at which the rat withdrew its paw (cut off set at 250 grams).
Determining ED50 values. Dose response data were curve-fitted using the least sum of square method by a normalized 4-parameter, variable slope non-linear analysis of the % Reversal of Mechano-allodynia in CCI and % Prevention of Mechano-allodynia or Mechano-hyperalgesia in CIPN using GraphPad Prism (Release 5.03, GraphPad Software, Inc.) from which the ED50 was determined and reported with the 95% confidence interval (95% CI). In the CCI model, the % Reversal of Mechano-allodynia=(PWT1h−PWTD7)/(PWTD0−PWTD7)×100, where PWTD0=Paw Withdrawal Threshold (g) at D0, PWT1h=Paw Withdrawal Threshold (g) at 1 hour after the administration of IB-MECA, gabapentin, amitriptyline, or combinations of IB-MECA with gabapentin or amitriptyline, and PWTD7=Paw Withdrawal Threshold (grams) at D7 prior to drug administration.
Statistical Analysis. Data are expressed as mean±SD for n animals. Behavioral data were analyzed by two-way repeated measures ANOVA with Bonferroni comparisons (full time course studies) or one-way ANOVA Dunnett's comparisons (1 hour behavioral data). The dose response curves were compared to a globally fitted curve using the extra sum-of-squares F-test comparisons to determine whether the data represented distinct curves between treatments. Significant differences were defined at a P<0.05. All statistical analysis was performed using GraphPad Prism (v5.03, GraphPad Software, Inc.).

[2] = test system: acute nociception (tail flick latency); experiment: Tail flick assay for acute nociception; type: in vivo, mice; conditions: IB-MECA, MRS1898 0.5 μmol/kg i.p. at 30, 60, 120 minutes; morphine 35 μmol/kg s.c. positive control
Method: (§1) Tail flick and hot plate assay in mice for acute nociception. The tail flick test, which measures latency(s) of tail withdrawal from a noxious radiant heat source (Ugo Basile; model number 37360) was used to measure thermal nociceptive sensitivity in mice with baseline latencies of 3-5 seconds and a cut-off time of 15 seconds to prevent tissue injury. Tail flick latencies were taken before and at 30, 60 and 120 minutes after i.p. injection of IB-MECA, MRS1898 (0.5 μmol/kg) or its vehicle (0.1% DMSO in saline). For the hot plate test, nociceptive thresholds were determined as previously reported by our group by measuring latencies (in seconds) of mice placed in a transparent glass cylinder on a hot plate maintained at 52° C.. Responses indicative of nociception included intermittent lifting and/or licking of the hindpaws or escape behavior. Hot plate latencies were taken in mice from all groups before and after drug administration. A cut-off latency of 15 seconds was employed to prevent tissue damage.

[3] = test system: acute nociception (hot plate latency); experiment: Hot plate assay for acute nociception; type: in vivo, mice; conditions: 0.5 μmol/kg
Method: as §1

[4] = test system: paclitaxel-induced neuropathic pain; experiment: Paclitaxel-induced neuropathic pain (mechano-allodynia, mechano-hyperalgesia); type: in vivo, rats; conditions: 0.2 μmol/kg/d (not shown)
[5] = subjects receiving the drug; cited from earlier work
[6] = test system: RPMI 8226 multiple myeloma cells; experiment: MTT cell survival assay, RPMI 8226; type: cell-based, human; conditions: 48 hours
Method: Cells were cultured and assayed in DMEM (SKBR3; human breast cancer cells), L15 (SW480; human colon cancer cells) or RPMI […] (RPMI 8226; human multiple myeloma cells) supplemented with heat-denatured 10% FBS and penicillin/streptomycin at 37° C., 0% (SW480) or 5% CO2 (SKBR3 and RPMI 8226), 95% humidity. The antitumor activities of these agents were measured in cells (6.25×10^4 cells/well) cultured overnight in 24-well plates (SKBR3 and SW480; BD Biosciences) or 12 mm×7.5 mm culture tubes (RPMI 8226; BD Biosciences) in complete media. […] Two naïve control wells were included as a control for 100% survival. Cell survival was determined using a MTT (3-(4,5-dimethylthiazol-2-yl)-2,5-diphenyltetrazolium bromide) assay adapted from a previously described assay. Cells were incubated with MTT (500 μg/ml) for 75 minutes at 37° C., 0% or 5% CO2, 95% humidity, removing the media and dissolving the tetrazolium crystals in isopropanol. […] The antitumor effects of IB-MECA alone were determined as % Survivability=(A560-570 nm of chemotherapeutic vehicle+IB-MECA)/(mean A560-570 nm of the naïve control wells)×100. The LD50 of each chemotherapeutic agent+IB-MECA or its vehicle was calculated using three-parameter non-linear analysis using % Survivability=(A560-570 nm of chemotherapeutic+IB-MECA or its vehicle)/(mean A560-570 nm chemotherapeutic vehicle+vehicle of IB-MECA)×100. […]

[7] = co-administered IB-MECA 0.2 μmol/kg, D7

Row | SMILES | efficacy of IB-MECA compared with this drug ([1]; D7, time of peak reversal (FIG. 7)) | effect on PWT in contralateral paws ([1]; D7 after CCI, drug alone) | ED50 ([1]; Mus musculus, read-out: ED50, reversal of mechano-allodynia) | time of maximal reversal of mechano-allodynia ([1]; after single administration on D7) | enhancement of efficacy by IB-MECA [1, 7] | increase of potency by IB-MECA [1, 7] | Emax, reversal of mechano-allodynia ([1]; mice, D7 after CCI, drug alone) | ED50 at peak reversal of mechano-allodynia when combined with IB-MECA ([1]; mice, D7 after CCI, co-administered with IB-MECA 0.2 μmol/kg) | fold less potent than IB-MECA in reversing mechano-allodynia ([1]; ratio of ED50 values, D7, time of peak reversal) | reversal of mechano-allodynia in ipsilateral paws [1] | effect on tail flick latency [2] | effect on the hot plate [3] | effect on paclitaxel-induced neuropathic pain [4] | incidence of CIPN [5] | LD50 [6]
1 | CN1CC[C@]23c4c5ccc(O)c4O[C@H]2[C@@H](O)C=C[C@H]3[C@H]1C5 [morphine] | more efficacious | not in contralateral paws | 2.1 µmol/kg | 0.5 h | 1.6 fold | > 2 fold | 62±3% | 0.98 µmol/kg | > 5 fold and 5 fold | dose-dependent reversal of mechano-allodynia | significant (P<0.001) increase in tail flick latencies |  |  |  | 
2 | CNC(=O)[C@]12C[C@@H]1[C@@H](n1cnc3c(NCc4cccc(I)c4)nc(Cl)nc31)[C@H](O)[C@@H]2O [MRS1898, (1′R,2′R,3′S,4′R,5′S)-4-{2-chloro-6-[(3-iodophenylmethyl)amino]purin-9-yl}-1-(methylaminocarbonyl)-bicyclo[3.1.0]hexane-2,3-diol] |  | had no effect |  |  |  |  |  |  |  | reversed mechano-allodynia | lacked effect | had no effect | completely blocked |  | 
3 | CC(C)C[C@H](NC(=O)[C@H](Cc1ccccc1)NC(=O)c1cnccn1)B(O)O [Bortezomib] |  |  |  |  |  |  |  |  |  |  |  |  |  | 36-55% | 27 nM
